Test results: the NIST ThermoML archive (doi:10.1021/je100734t)

Test: xn = mol fraction of the nth substance listed
Settings: 101 kPa, Liquid; for speed of sound: Pulse-echo method

Cc1cccc(C)c1 [1,3-dimethylbenzene] + CCCCCCCCCCO
Settings | mass density, 293.15 K [kg/m3] | mass density, 303.15 K [kg/m3] | mass density, 313.15 K [kg/m3] | speed of sound, 293.15 K [m/s] | speed of sound, 303.15 K [m/s] | speed of sound, 313.15 K [m/s]
x1 = 0.0627 | 831.48 | 824.51 | 817.53 | 1392 | 1358 | 1324
x1 = 0.1424 | 833.39 | 826.27 | 819.18 | 1388 | 1352 | 1318
x1 = 0.2052 | 834.93 | 827.72 | 820.53 | 1383 | 1347 | 1312
x1 = 0.2618 | 836.35 | 829.06 | 821.78 | 1379 | 1343 | 1308
x1 = 0.3217 | 837.9 | 830.53 | 823.14 | 1375 | 1338 | 1302
x1 = 0.3934 | 839.84 | 832.37 | 824.85 | 1369 | 1332 | 1296
x1 = 0.4989 | 842.94 | 835.28 | 827.6 | 1361 | 1324 | 1287
x1 = 0.5581 | 844.81 | 837.05 | 829.26 | 1357 | 1319 | 1282
x1 = 0.6343 | 847.44 | 839.52 | 831.6 | 1352 | 1313 | 1276
x1 = 0.7131 | 850.41 | 842.31 | 834.24 | 1348 | 1308 | 1270
x1 = 0.7991 | 853.99 | 845.71 | 837.47 | 1344 | 1304 | 1265
x1 = 0.8465 | 856.11 | 847.74 | 839.4 | 1342 | 1302 | 1262
x1 = 0.8964 | 858.52 | 850.09 | 841.61 | 1341 | 1300 | 1260
x1 = 0.9421 | 860.9 | 852.38 | 843.82 | 1341 | 1300 | 1259
x1 = 1 | 864.18 | 855.56 | 846.9 | 1340 | 1300 | 1259

CCCCCCCCCCO [decan-1-ol] + CCc1ccccc1
Settings | mass density, 293.15 K [kg/m3] | mass density, 303.15 K [kg/m3] | mass density, 313.15 K [kg/m3] | speed of sound, 293.15 K [m/s] | speed of sound, 303.15 K [m/s] | speed of sound, 313.15 K [m/s]
x2 = 0 | 829.98 | 823.1 | 816.27 | 1396 | 1362 | 1329
x2 = 0.0666 | 831.5 | 824.47 | 817.46 | 1391 | 1356 | 1322
x2 = 0.1392 | 833.18 | 826 | 818.82 | 1385 | 1350 | 1316
x2 = 0.1932 | 834.47 | 827.18 | 819.88 | 1381 | 1345 | 1310
x2 = 0.2642 | 836.24 | 828.8 | 821.32 | 1375 | 1339 | 1304
x2 = 0.3355 | 838.11 | 830.52 | 822.85 | 1369 | 1333 | 1297
x2 = 0.3936 | 839.72 | 832.03 | 824.21 | 1364 | 1327 | 1291
x2 = 0.4483 | 841.33 | 833.52 | 825.58 | 1360 | 1322 | 1286
x2 = 0.5238 | 843.73 | 835.78 | 827.65 | 1354 | 1316 | 1279
x2 = 0.598 | 846.33 | 838.23 | 829.91 | 1349 | 1310 | 1273
x2 = 0.6621 | 848.79 | 840.59 | 832.13 | 1344 | 1305 | 1268
x2 = 0.7309 | 851.72 | 843.4 | 834.8 | 1341 | 1301 | 1263
x2 = 0.7953 | 854.7 | 846.31 | 837.56 | 1338 | 1298 | 1259
x2 = 0.8668 | 858.41 | 849.96 | 841.06 | 1336 | 1295 | 1256
x2 = 0.9396 | 862.65 | 854.3 | 845.13 | 1336 | 1295 | 1255
